The text below walks through data of ChEMBL document CHEMBL1147635, “KMI-358 and KMI-370, highly potent and small-sized BACE1 inhibitors containing phenylnorstatine” (Bioorg Med Chem Lett, 2004).

*1 amine or outer side, *2 acyl side, *3 side chain or, on linkers, in order; H or OH if unused. Where a SMILES comes first, the peptide text is derived from it. [ ]: non-standard residue; d: D form. β3hPhe(2R-OH) = O=C([C@H](O)[C@H](Cc1ccccc1)N[*:1])[*:2]; Dap = NC[C@H](N)C(=O)O; CO = O=C([*:1])[*:2] Bounds are passed on as bounds.

Experiment [1] has as its target T1, Beta-secretase 1 (Homo sapiens, UniProt P56817). The experiment is described as follows: Inhibitory concentration of compound against Beta-secretase 1 was evaluated.
Experiment [2] has as its target T1, Beta-secretase 1. The experiment is described as follows: Inhibition of Beta-secretase 1 at 2 uM concentration.

T1 sequence (P56817 whole entry): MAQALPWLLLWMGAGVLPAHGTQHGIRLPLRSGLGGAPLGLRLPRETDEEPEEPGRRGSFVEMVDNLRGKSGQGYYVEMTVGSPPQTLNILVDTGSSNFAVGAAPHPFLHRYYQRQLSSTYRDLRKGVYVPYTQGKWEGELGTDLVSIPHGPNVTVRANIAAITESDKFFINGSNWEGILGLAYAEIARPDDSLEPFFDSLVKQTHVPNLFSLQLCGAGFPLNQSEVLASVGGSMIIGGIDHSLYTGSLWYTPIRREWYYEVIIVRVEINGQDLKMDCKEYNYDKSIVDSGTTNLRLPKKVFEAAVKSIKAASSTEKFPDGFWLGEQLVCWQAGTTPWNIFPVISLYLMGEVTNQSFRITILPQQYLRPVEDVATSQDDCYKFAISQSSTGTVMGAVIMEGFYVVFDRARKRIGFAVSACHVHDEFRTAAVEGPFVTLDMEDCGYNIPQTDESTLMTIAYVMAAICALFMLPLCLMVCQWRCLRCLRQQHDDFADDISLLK

The IC50 is the concentration that inhibits the measured activity by half. The low end stands for greater potency, the high end for weaker potency. The molecule `CC(C)C[C@H](NC(=O)[C@@H](NC(=O)[C@@H](N)CNC(=O)O)C(C)C)C(=O)N[C@@H](Cc1ccccc1)[C@@H](O)C(=O)Nc1cc(C(=O)O)cc(C(=O)O)c1` had an IC50 on Beta-secretase 1 [1] of 3.4 nM.
What is called inhibition is the relative decrease from the control value, in per cent. A low value points to a response near the control. Consider `CC(C)C[C@H](NC(=O)[C@@H](NC(=O)[C@@H](N)CCC(=O)O)C(C)C)C(=O)N[C@@H](Cc1ccccc1)[C@@H](O)C(=O)Nc1cc(C(=O)O)cc(C(=O)O)c1`, for which inhibition at Beta-secretase 1 [1] was half-maximal at 55 nM (IC50). Besides, on Beta-secretase 1 [2], the inhibition was over 90%.
`CC(C)C[C@H](NC(=O)[C@@H](NC(=O)[C@@H](N)CNC(=O)O)C(C)C)C(=O)N[C@@H](Cc1ccccc1)[C@@H](O)C(=O)Nc1cccc(C(=O)O)c1` had an IC50 on Beta-secretase 1 [1] of 16 nM.
`CC(C)C[C@H](NC(=O)[C@@H](NC(=O)[C@@H](N)CCC(=O)O)C(C)C)C(=O)N[C@@H](Cc1ccccc1)[C@@H](O)C(=O)NCc1ccc(C(=O)O)cc1` yielded an inhibition at Beta-secretase 1 [2] of 52%.
At Beta-secretase 1 [2], `CC(C)C[C@H](NC(=O)[C@@H](NC(=O)[C@@H](N)CCC(=O)O)C(C)C)C(=O)N[C@@H](Cc1ccccc1)[C@@H](O)C(=O)NCc1cccc(C(=O)O)c1` gave an inhibition of 64%.
Take `CC(C)C[C@H](NC(=O)[C@@H](NC(=O)[C@@H](N)CCC(=O)O)C(C)C)C(=O)N[C@@H](Cc1ccccc1)[C@@H](O)C(=O)NCc1ccccc1`: the inhibition at Beta-secretase 1 [2] amounted to 30%.
Regarding `CC(C)C[C@H](NC(=O)[C@@H](NC(=O)[C@@H](N)CCC(=O)O)C(C)C)C(=O)N[C@@H](Cc1ccccc1)[C@@H](O)C(=O)Nc1ccc(C(=O)O)cc1`, the inhibition against Beta-secretase 1 [2] amounted to 79%.
The molecule `CC(C)C[C@H](NC(=O)[C@@H](NC(=O)[C@@H](N)CNC(=O)O)C(C)C)C(=O)N[C@@H](Cc1ccccc1)[C@@H](O)C(=O)N[C@@H](CC(=O)O)C(=O)N[C@@H](C)C(=O)N[C@@H](CCC(=O)O)C(=O)O` (H-[Dap](CO)VL[β3hPhe(2R-OH)]DAE-OH) gave a half-maximal inhibitory concentration (IC50) at Beta-secretase 1 [1] of 84 nM. At Beta-secretase 1 [2], this molecule displayed an inhibition of over 90%.
Consider `CC(C)C[C@H](NC(=O)[C@@H](NC(=O)[C@@H](N)CC(=O)O)C(C)C)C(=O)N[C@@H](Cc1ccccc1)[C@@H](O)C(=O)N[C@@H](CC(=O)O)C(=O)N[C@@H](C)C(=O)N[C@@H](CCC(=O)O)C(=O)O` (HELM PEPTIDE1{D.V.L.[O=C([C@H](O)[C@H](Cc1ccccc1)N[*:1])[*:2]].D.A.E}$$$$V2.0), for which the inhibition at Beta-secretase 1 [2] was under 20%.
Regarding `CC(C)[C@H](NC(=O)[C@@H](N)CCC(=O)O)C(=O)NCC(=O)N[C@@H](Cc1ccccc1)[C@@H](O)C(=O)N[C@@H](CC(=O)O)C(=O)N[C@@H](C)C(=O)N[C@@H](CCC(=O)O)C(=O)N[C@@H](Cc1ccccc1)C(=O)O` (HELM PEPTIDE1{E.V.G.[O=C([C@H](O)[C@H](Cc1ccccc1)N[*:1])[*:2]].D.A.E.F}$$$$V2.0), the inhibition at Beta-secretase 1 [2] is under 20%.
On the same count and under the same terms, with `CC(C)C[C@H](NC(=O)[C@@H](NC(=O)[C@@H](N)CCC(=O)O)C(C)C)C(=O)N[C@@H](Cc1ccccc1)[C@@H](O)C(=O)N[C@@H](CC(=O)O)C(=O)N[C@@H](C)C(=O)N[C@@H](CCC(=O)O)C(=O)N[C@@H](Cc1ccccc1)C(=O)O` (HELM PEPTIDE1{E.V.L.[O=C([C@H](O)[C@H](Cc1ccccc1)N[*:1])[*:2]].D.A.E.F}$$$$V2.0) the figure was under 90%; with `CC(C)C[C@H](NC(=O)[C@@H](NC(=O)[C@@H](N)CCC(=O)O)C(C)C)C(=O)N[C@@H](Cc1ccccc1)[C@@H](O)C(=O)N[C@@H](CC(=O)O)C(=O)N[C@@H](C)C(=O)N[C@@H](CCC(=O)O)C(=O)NCC(=O)O` (HELM PEPTIDE1{E.V.L.[O=C([C@H](O)[C@H](Cc1ccccc1)N[*:1])[*:2]].D.A.E.G}$$$$V2.0), 65%.
The same measure, in the same setting: with `CC(C)C[C@H](NC(=O)[C@@H](NC(=O)[C@@H](N)CCC(=O)O)C(C)C)C(=O)N[C@@H](Cc1ccccc1)[C@@H](O)C(=O)N[C@@H](CC(=O)O)C(=O)N[C@@H](C)C(=O)N[C@@H](CCC(=O)O)C(=O)O` (HELM PEPTIDE1{E.V.L.[O=C([C@H](O)[C@H](Cc1ccccc1)N[*:1])[*:2]].D.A.E}$$$$V2.0) the figure was 60%; with `CC(C)C[C@H](NC(=O)[C@@H](NC(=O)[C@@H](N)CCC(=O)O)C(C)C)C(=O)N[C@@H](Cc1ccccc1)[C@@H](O)C(=O)N[C@@H](CC(=O)O)C(=O)N[C@@H](C)C(=O)O` (HELM PEPTIDE1{E.V.L.[O=C([C@H](O)[C@H](Cc1ccccc1)N[*:1])[*:2]].D.A}$$$$V2.0), 46%; with `CC(C)C[C@H](NC(=O)[C@@H](NC(=O)[C@@H](N)CCC(=O)O)C(C)C)C(=O)N[C@@H](Cc1ccccc1)[C@@H](O)C(=O)N[C@@H](CC(=O)O)C(=O)NCC(=O)N[C@@H](CCC(=O)O)C(=O)N[C@@H](Cc1ccccc1)C(=O)O` (HELM PEPTIDE1{E.V.L.[O=C([C@H](O)[C@H](Cc1ccccc1)N[*:1])[*:2]].D.G.E.F}$$$$V2.0), 73%.
Consider `CC(C)C[C@H](NC(=O)[C@@H](NC(=O)[C@@H](N)CCC(=O)O)C(C)C)C(=O)N[C@@H](Cc1ccccc1)[C@@H](O)C(=O)N[C@@H](CC(=O)O)C(=O)O` (HELM PEPTIDE1{E.V.L.[O=C([C@H](O)[C@H](Cc1ccccc1)N[*:1])[*:2]].D}$$$$V2.0), for which, on Beta-secretase 1 [2], the inhibition was determined as 61%.
The same measure, in the same setting: with `CC(C)C[C@H](NC(=O)[C@@H](NC(=O)[C@@H](N)CCC(=O)O)C(C)C)C(=O)N[C@@H](Cc1ccccc1)[C@@H](O)C(=O)NCC(=O)N[C@@H](C)C(=O)N[C@@H](CCC(=O)O)C(=O)N[C@@H](Cc1ccccc1)C(=O)O` (HELM PEPTIDE1{E.V.L.[O=C([C@H](O)[C@H](Cc1ccccc1)N[*:1])[*:2]].G.A.E.F}$$$$V2.0) the figure was 54%; with `CC(C)C[C@H](NC(=O)[C@@H](NC(=O)CN)C(C)C)C(=O)N[C@@H](Cc1ccccc1)[C@@H](O)C(=O)N[C@@H](CC(=O)O)C(=O)N[C@@H](C)C(=O)N[C@@H](CCC(=O)O)C(=O)N[C@@H](Cc1ccccc1)C(=O)O` (HELM PEPTIDE1{G.V.L.[O=C([C@H](O)[C@H](Cc1ccccc1)N[*:1])[*:2]].D.A.E.F}$$$$V2.0), under 20%.
At Beta-secretase 1 [2], `CC(C)C[C@H](N)C(=O)N[C@@H](Cc1ccccc1)[C@@H](O)C(=O)N[C@@H](CC(=O)O)C(=O)N[C@@H](C)C(=O)N[C@@H](CCC(=O)O)C(=O)N[C@@H](Cc1ccccc1)C(=O)O` (HELM PEPTIDE1{L.[O=C([C@H](O)[C@H](Cc1ccccc1)N[*:1])[*:2]].D.A.E.F}$$$$V2.0) had an inhibition of under 20%.
In the case of `CC(C)C[C@H](NC(=O)[C@@H](NC(=O)[C@@H](N)CCC(N)=O)C(C)C)C(=O)N[C@@H](Cc1ccccc1)[C@@H](O)C(=O)N[C@@H](CC(=O)O)C(=O)N[C@@H](C)C(=O)N[C@@H](CCC(=O)O)C(=O)O` (HELM PEPTIDE1{Q.V.L.[O=C([C@H](O)[C@H](Cc1ccccc1)N[*:1])[*:2]].D.A.E}$$$$V2.0), the inhibition against Beta-secretase 1 [2] is under 20%.
In turn, `CC(C)C[C@H](NC(=O)[C@@H](N)C(C)C)C(=O)N[C@@H](Cc1ccccc1)[C@@H](O)C(=O)N[C@@H](CC(=O)O)C(=O)N[C@@H](C)C(=O)N[C@@H](CCC(=O)O)C(=O)N[C@@H](Cc1ccccc1)C(=O)O` (HELM PEPTIDE1{V.L.[O=C([C@H](O)[C@H](Cc1ccccc1)N[*:1])[*:2]].D.A.E.F}$$$$V2.0) displayed an inhibition at Beta-secretase 1 [2] of under 20%.
Turning to `CC(C)C[C@H](NC(=O)[C@@H](NC(=O)[C@@H](N)CCCC(=O)O)C(C)C)C(=O)N[C@@H](Cc1ccccc1)[C@@H](O)C(=O)N[C@@H](CC(=O)O)C(=O)N[C@@H](C)C(=O)N[C@@H](CCC(=O)O)C(=O)O` (HELM PEPTIDE1{[N[C@@H](CCCC(=O)O)C(=O)[*:2]].V.L.[O=C([C@H](O)[C@H](Cc1ccccc1)N[*:1])[*:2]].D.A.E}$$$$V2.0), the inhibition at Beta-secretase 1 [2] worked out at 43%.
`C[C@H](NC(=O)[C@H](CC(=O)O)NC(=O)[C@H](O)[C@@H](N)Cc1ccccc1)C(=O)N[C@@H](CCC(=O)O)C(=O)N[C@@H](Cc1ccccc1)C(=O)O` (HELM PEPTIDE1{[N[C@@H](Cc1ccccc1)[C@@H](O)C(=O)[*:2]].D.A.E.F}$$$$V2.0): the inhibition against Beta-secretase 1 [2] was under 20%.
For the molecule `CC(C)C[C@H](NC(=O)[C@@H](NC(=O)CCCC(=O)O)C(C)C)C(=O)N[C@@H](Cc1ccccc1)[C@@H](O)C(=O)N[C@@H](CC(=O)O)C(=O)N[C@@H](C)C(=O)N[C@@H](CCC(=O)O)C(=O)O` (HELM PEPTIDE1{[O=C(O)CCCC(=O)[*:2]].V.L.[O=C([C@H](O)[C@H](Cc1ccccc1)N[*:1])[*:2]].D.A.E}$$$$V2.0), the inhibition at Beta-secretase 1 [2] is under 20%.
`CC(C)C[C@H](NC(=O)[C@@H](NC(=O)[C@@H](N)CCC(=O)O)C(C)C)C(=O)N[C@@H](Cc1ccccc1)[C@@H](O)C(=O)Nc1cccc(C(=O)O)c1` (mixture of isomers) came in with an inhibition at Beta-secretase 1 [2] of 82%.
For `CC(C)C[C@H](NC(=O)[C@@H](NC(=O)[C@@H](N)CCC(=O)O)C(C)C)C(=O)N[C@@H](Cc1ccccc1)[C@@H](O)C(=O)O` (mixture of isomers), the inhibition at Beta-secretase 1 [2] came out at 34%.
The same measure, in the same setting: with `CC(C)C[C@H](NC(=O)CNC(=O)[C@@H](N)CCC(=O)O)C(=O)N[C@@H](Cc1ccccc1)C(O)C(=O)N[C@@H](CC(=O)O)C(=O)NC(C)C(=O)N[C@@H](CCC(=O)O)C(=O)N[C@@H](Cc1ccccc1)C(=O)O` (single isomer, unassigned) the figure was under 20%; with `CC(C)C[C@H](NC(=O)[C@@H](NC(=O)[C@@H](N)CCC(=O)O)C(C)C)C(=O)N[C@@H](Cc1ccccc1)[C@@H](O)C(=O)N[C@@H](CC(=O)O)C(=O)NC(C)C(=O)NCC(=O)N[C@@H](Cc1ccccc1)C(=O)O` (single isomer, unassigned), 56%.
